According to ChEMBL document CHEMBL1128849, “Synthesis and antibacterial activity of men 10700, a new penem antibiotic” (1995):
≈ marks a conversion by molar mass, not a printed value.

How the values were obtained:
Aeromonas sp. = test: In vitro antibacterial activity against Aeromonas species.; format: functional
[1] = tested on: Acinetobacter calcoaceticus subsp. anitratus; test: In vitro antibacterial activity against Acinetobacter anitratus; format: functional
Bacteroides fragilis = test: In vitro antibacterial activity against Bacteroides fragilis; format: functional
Moraxella catarrhalis = test: In vitro antibacterial activity against Branhamella catarrhalis; format: functional
Clostridium perfringens = test: In vitro antibacterial activity against Clostridium perfringens; format: functional
Citrobacter freundii = test: In vitro antibacterial activity against Citrobacter freundii; format: functional
Enterococcus faecalis [2] = test: In vitro antibacterial activity against Enterococcus faecalis; format: functional
Enterococcus faecium = test: In vitro antibacterial activity against Enterococcus faecium; format: functional
Enterococcus faecalis [3] = test: In vitro antibacterial activity against Enterococcus faecalis ATCC 29212; format: functional
Escherichia coli [4] = test: In vitro antibacterial activity against Escherichia coli; format: functional
Escherichia coli [5] = test: In vitro antibacterial activity against Escherichia. coli ATCC 25922; format: functional
Escherichia coli [6] = test: In vitro antibacterial activity against Escherichia. coli L; format: functional
Escherichia coli [7] = test: In vitro antibacterial activity against Escherichia. coli SHV; format: functional
Escherichia coli [8] = test: In vitro antibacterial activity against Escherichia. coli TEM1; format: functional
Escherichia coli [9] = test: In vitro antibacterial activity against Escherichia. coli TEM2; format: functional
Klebsiella aerogenes = test: In vitro antibacterial activity against Enterobacter aerogenes; format: functional
Haemophilus influenzae = test: In vitro antibacterial activity against Haemophilus influenzae; format: functional
Klebsiella pneumoniae = test: In vitro antibacterial activity against Klebsiella pneumoniae; format: functional
Listeria monocytogenes = test: In vitro antibacterial activity against Listeria monocytogenes; format: functional
Morganella morganii = test: In vitro antibacterial activity against Morganella morganii; format: functional
Pseudomonas aeruginosa [10] = test: In vitro antibacterial activity against Pseudomonas aeruginosa VR5; format: functional
Proteus vulgaris = test: In vitro antibacterial activity against Proteus vulgaris; format: functional
Providencia stuartii = test: In vitro antibacterial activity against Providencia stuartii; format: functional
Providencia rettgeri = test: In vitro antibacterial activity against Providencia rettgerii; format: functional
Proteus mirabilis = test: In vitro antibacterial activity against Proteus mirabilis; format: functional
Pseudomonas aeruginosa [11] = test: In vitro antibacterial activity against Pseudomonas aeruginosa; format: functional
Pseudomonas aeruginosa [12] = test: In vitro antibacterial activity against Pseudomonas aeruginosa ATCC 27853; format: functional
Pseudomonas aeruginosa [13] = test: In vitro antibacterial activity against Pseudomonas aeruginosa G242; format: functional
[14] = tested on: Staphylococcus epidermidis; test: In vitro antibacterial activity against Staphylococcus epidermidis; format: functional
Staphylococcus aureus [15] = test: In vitro antibacterial activity against Staphylococcus aureus MR; format: functional
Staphylococcus aureus [16] = test: In vitro antibacterial activity against Staphylococcus aureus MS; format: functional
Streptococcus agalactiae = test: In vitro antibacterial activity against Streptococcus agalactiae B; format: functional
Staphylococcus aureus [17] = test: In vitro antibacterial activity against Staphylococcus aureus ATCC 25923; format: functional
Staphylococcus aureus [18] = test: In vitro antibacterial activity against Staphylococcus aureus ATCC 29213; format: functional
Staphylococcus aureus [19] = test: In vitro antibacterial activity against Staphylococcus aureus MR09; format: functional
Staphylococcus aureus [20] = test: In vitro antibacterial activity against Staphylococcus aureus MR13; format: functional
Streptococcus pneumoniae = test: In vitro antibacterial activity against Streptococcus pneumoniae; format: functional
Yersinia sp. = test: In vitro antibacterial activity against Yersinia species; format: functional, yersinia spp; details: Yersinia sp. (in: enterobacteria)
[21] = tested on: Stenotrophomonas maltophilia; test: In vitro antibacterial activity against Xanthomonas maltophilia; format: functional
Streptococcus pyogenes = test: In vitro antibacterial activity against Streptococcus pyogenes A; format: functional
Escherichia coli [22] = test: In vitro antibacterial activity against Escherichia. coli DC2; format: functional
Pseudomonas aeruginosa [23] = test: microbe, parasite or virus in culture; details: ATCC 27853

CC1(C)S[C@@H]2[C@H](NC(=O)[C@H](N)c3ccccc3)C(=O)N2[C@H]1C(=O)O.CC1(C)[C@H](C(=O)O)N2C(=O)C[C@H]2S1(=O)=O
MIC90 (Aeromonas sp.): > 32 µg/mL | MIC90 [1]: 32 µg/mL | MIC90 (Bacteroides fragilis): 4 µg/mL | MIC90 (Moraxella catarrhalis): 0.5 µg/mL | MIC90 (Clostridium perfringens): 0.12 µg/mL | MIC90 (Citrobacter freundii): > 64 µg/mL | MIC90 (Enterococcus faecalis [2]): 2 µg/mL | MIC90 (Enterococcus faecium): > 64 µg/mL | MIC (Enterococcus faecalis [3]): 1 µg/mL | MIC90 (Escherichia coli [4]): 8 µg/mL | MIC (Escherichia coli [5]): 8 µg/mL | MIC (Escherichia coli [6]): 8 µg/mL | MIC (Escherichia coli [7]): > 32 µg/mL | MIC (Escherichia coli [8]): > 32 µg/mL | MIC (Escherichia coli [9]): 8 µg/mL | MIC90 (Klebsiella aerogenes): > 64 µg/mL | MIC90 (Haemophilus influenzae): 1 µg/mL | MIC90 (Klebsiella pneumoniae): 16 µg/mL | MIC90 (Listeria monocytogenes): 0.5 µg/mL | MIC90 (Morganella morganii): 16 µg/mL | MIC (Pseudomonas aeruginosa [10]): 0.12 µg/mL | MIC90 (Proteus vulgaris): 8 µg/mL | MIC90 (Providencia stuartii): 64 µg/mL | MIC90 (Providencia rettgeri): 32 µg/mL | MIC90 (Proteus mirabilis): 32 µg/mL | MIC90 (Pseudomonas aeruginosa [11]): > 64 µg/mL | MIC (Pseudomonas aeruginosa [12]): 32 µg/mL | MIC (Pseudomonas aeruginosa [13]): > 32 µg/mL | MIC90 [14]: 4 µg/mL | MIC90 (Staphylococcus aureus [15]): 32 µg/mL | MIC90 (Staphylococcus aureus [16]): 1 µg/mL | MIC90 (Streptococcus agalactiae): 0.06 µg/mL | MIC (Staphylococcus aureus [17]): 0.03 µg/mL | MIC (Staphylococcus aureus [18]): 0.25 µg/mL | MIC (Staphylococcus aureus [19]): 4 µg/mL | MIC (Staphylococcus aureus [20]): 0.12 µg/mL | MIC90 (Streptococcus pneumoniae): 0.03 µg/mL | MIC90 (Yersinia sp.): 32 µg/mL | MIC90 [21]: > 64 µg/mL | MIC90 (Streptococcus pyogenes): 0.03 µg/mL

CC1(C)S[C@@H]2[C@H](NC(=O)[C@H](N)c3ccc(O)cc3)C(=O)N2[C@H]1C(=O)O [AMOXICILLIN]
MIC90 (Aeromonas sp.): > 32 µg/mL | MIC90 (Bacteroides fragilis): 32 µg/mL (≈ 87.6 µM) | MIC90 (Moraxella catarrhalis): 2 µg/mL (≈ 5.47 µM) | MIC90 (Clostridium perfringens): 0.06 µg/mL (≈ 0.164 µM) | MIC90 (Enterococcus faecalis [2]): 0.5 µg/mL (≈ 1.37 µM) | MIC90 (Enterococcus faecium): 32 µg/mL (≈ 87.6 µM) | MIC90 (Haemophilus influenzae): 1 µg/mL (≈ 2.74 µM) | MIC90 (Klebsiella pneumoniae): > 64 µg/mL | MIC90 (Listeria monocytogenes): 0.5 µg/mL (≈ 1.37 µM) | MIC90 [14]: 4 µg/mL (≈ 10.9 µM) | MIC90 (Staphylococcus aureus [15]): > 32 µg/mL | MIC90 (Staphylococcus aureus [16]): 1 µg/mL (≈ 2.74 µM) | MIC90 (Streptococcus agalactiae): 0.06 µg/mL (≈ 0.164 µM) | MIC90 (Streptococcus pneumoniae): 0.015 µg/mL (≈ 0.041 µM) | MIC90 (Yersinia sp.): > 64 µg/mL | MIC90 (Streptococcus pyogenes): 0.015 µg/mL (≈ 0.041 µM)

C[C@@H](O)[C@H]1C(=O)N2C(C(=O)O)=C(SCCNC=N)C[C@H]12 [IMIPENEM ANHYDROUS]
MIC90 (Aeromonas sp.): 0.06 µg/mL (≈ 0.2 µM) | MIC90 [1]: 0.5 µg/mL (≈ 1.67 µM) | MIC90 (Bacteroides fragilis): 0.25 µg/mL (≈ 0.835 µM) | MIC90 (Moraxella catarrhalis): 0.03 µg/mL (≈ 0.1 µM) | MIC90 (Clostridium perfringens): 0.03 µg/mL (≈ 0.1 µM) | MIC90 (Citrobacter freundii): 0.5 µg/mL (≈ 1.67 µM) | MIC90 (Enterococcus faecalis [2]): 2 µg/mL (≈ 6.68 µM) | MIC90 (Enterococcus faecium): > 64 µg/mL | MIC (Enterococcus faecalis [3]): 0.5 µg/mL (≈ 1.67 µM) | MIC90 (Escherichia coli [4]): 0.12 µg/mL (≈ 0.401 µM) | MIC (Escherichia coli [5]): 0.12 µg/mL (≈ 0.401 µM) | MIC (Escherichia coli [22]): 0.5 µg/mL (≈ 1.67 µM) | MIC (Escherichia coli [6]): 0.12 µg/mL (≈ 0.401 µM) | MIC (Escherichia coli [7]): 0.25 µg/mL (≈ 0.835 µM) | MIC (Escherichia coli [8]): 0.25 µg/mL (≈ 0.835 µM) | MIC (Escherichia coli [9]): 0.25 µg/mL (≈ 0.835 µM) | MIC90 (Klebsiella aerogenes): 4 µg/mL (≈ 13.4 µM) | MIC90 (Haemophilus influenzae): 1 µg/mL (≈ 3.34 µM) | MIC90 (Klebsiella pneumoniae): 0.25 µg/mL (≈ 0.835 µM) | MIC90 (Listeria monocytogenes): 0.03 µg/mL (≈ 0.1 µM) | MIC90 (Morganella morganii): 2 µg/mL (≈ 6.68 µM) | MIC (Pseudomonas aeruginosa [10]): 0.25 µg/mL (≈ 0.835 µM) | MIC90 (Proteus vulgaris): 2 µg/mL (≈ 6.68 µM) | MIC90 (Providencia stuartii): 2 µg/mL (≈ 6.68 µM) | MIC90 (Providencia rettgeri): 1 µg/mL (≈ 3.34 µM) | MIC90 (Proteus mirabilis): 2 µg/mL (≈ 6.68 µM) | MIC90 (Pseudomonas aeruginosa [11]): 8 µg/mL (≈ 26.7 µM) | MIC (Pseudomonas aeruginosa [13]): 0.25 µg/mL (≈ 0.835 µM) | MIC90 [14]: 0.25 µg/mL (≈ 0.835 µM) | MIC90 (Staphylococcus aureus [15]): > 32 µg/mL | MIC90 (Staphylococcus aureus [16]): 0.015 µg/mL (≈ 0.0501 µM) | MIC90 (Streptococcus agalactiae): 0.015 µg/mL (≈ 0.0501 µM) | MIC (Staphylococcus aureus [17]): < 0.03 µg/mL | MIC (Staphylococcus aureus [18]): < 0.03 µg/mL | MIC (Staphylococcus aureus [19]): 0.25 µg/mL (≈ 0.835 µM) | MIC (Staphylococcus aureus [20]): 0.12 µg/mL (≈ 0.401 µM) | MIC90 (Streptococcus pneumoniae): 0.06 µg/mL (≈ 0.2 µM) | MIC90 (Yersinia sp.): 0.25 µg/mL (≈ 0.835 µM) | MIC90 [21]: > 64 µg/mL | MIC90 (Streptococcus pyogenes): 0.06 µg/mL (≈ 0.2 µM) | MIC (Pseudomonas aeruginosa [23]): 1 µg/mL (≈ 3.34 µM)

C[C@@H](O)[C@H]1C(=O)N2C(C(=O)O)=C(COC(N)=O)S[C@H]12 [RITIPENEM]
MIC (Enterococcus faecalis [3]): 2 µg/mL (≈ 6.94 µM) | MIC (Escherichia coli [5]): 0.5 µg/mL (≈ 1.73 µM) | MIC (Escherichia coli [22]): 1 µg/mL (≈ 3.47 µM) | MIC (Escherichia coli [6]): 1 µg/mL (≈ 3.47 µM) | MIC (Escherichia coli [7]): 1 µg/mL (≈ 3.47 µM) | MIC (Escherichia coli [8]): 1 µg/mL (≈ 3.47 µM) | MIC (Escherichia coli [9]): 1 µg/mL (≈ 3.47 µM) | MIC (Pseudomonas aeruginosa [10]): 0.5 µg/mL (≈ 1.73 µM) | MIC (Pseudomonas aeruginosa [12]): > 32 µg/mL | MIC (Pseudomonas aeruginosa [13]): 1 µg/mL (≈ 3.47 µM) | MIC (Staphylococcus aureus [17]): 0.06 µg/mL (≈ 0.208 µM) | MIC (Staphylococcus aureus [18]): 0.12 µg/mL (≈ 0.416 µM) | MIC (Staphylococcus aureus [19]): 2 µg/mL (≈ 6.94 µM) | MIC (Staphylococcus aureus [20]): 0.12 µg/mL (≈ 0.416 µM)
